Results reported in ChEMBL document CHEMBL4834475, “Synthesis of anti-proliferative [3.3.0]furofuranone derivatives by lactonization and functionalization of C-glycosyl compounds” (Bioorg Med Chem, 2021).
Calls of active or inactive are those of the source. The rule behind the calls is not given here.

What was measured:
[1] = test system: U-87 MG; assay: Antiproliferative activity against human U87 cells assessed as reduction in cell viability at 0.1 to 250 uM measured after 72 hrs by MTT assay; format: functional, cell-based; details: U-87MG ATCC, dose 0.1-250 µM
[2] = test system: Daoy; assay: Antiproliferative activity against human Daoy cells assessed as reduction in cell viability at 0.1 to 250 uM measured after 72 hrs by MTT assay; format: functional, cell-based; details: dose 0.1-250 µM
[3] = test system: U-251; assay: Antiproliferative activity against human U-251 cells assessed as reduction in cell viability at 0.1 to 250 uM measured after 72 hrs by MTT assay; format: functional, cell-based; details: dose 0.1-250 µM
[4] = test system: MDA-MB-231; assay: Antiproliferative activity against human MDA-MB-231 cells assessed as reduction in cell viability at 0.1 to 250 uM measured after 72 hrs by MTT assay; format: functional, cell-based; details: dose 0.1-250 µM
[5] = test system: U-251; assay: Induction of cell cycle arrest in human U-251 cells assessed as accumulation at S phase at 1 uM measured after 72 hrs by propidium iodide staining based flow cytometry; format: functional
[6] = test system: U-251; assay: Antiproliferative activity against human U-251 cells assessed as reduction in cell viability measured after 72 hrs by MTT assay; format: functional, cell-based; details: U-251, 72 h
[7] = test system: U-251; assay: Induction of cell cycle arrest in human U-251 cells assessed as accumulation at G1 phase at 1 uM measured after 72 hrs by propidium iodide staining based flow cytometry; format: functional
[8] = test system: U-87 MG; assay: Antiproliferative activity against human U87 cells assessed as reduction in cell viability measured after 72 hrs by MTT assay; format: functional, cell-based, U-87MG ATCC
[9] = test system: U-251; assay: Induction of cell cycle arrest in human U-251 cells assessed as accumulation at G2/M phase at 1 uM measured after 72 hrs by propidium iodide staining based flow cytometry; format: functional
[10] = test system: Daoy; assay: Antiproliferative activity against human Daoy cells assessed as reduction in cell viability measured after 72 hrs by MTT assay; format: functional, cell-based
[11] = test system: MDA-MB-231; assay: Antiproliferative activity against human MDA-MB-231 cells assessed as reduction in cell viability measured after 72 hrs by MTT assay; format: functional, cell-based; details: MDA-MB-231, 72 h
[12] = test system: U-251; assay: Induction of apoptosis in human U-251 cells assessed as increase in accumulation of cells at sub-G1 phase at 0.1 uM measured after 72 hrs by propidium iodide staining based flow cytometry; format: functional, cell-based
[13] = test system: U-251; assay: Induction of cell cycle arrest in human U-251 cells assessed as increase in accumulation of cells at G1 phase at 0.1 uM measured after 72 hrs by propidium iodide staining based flow cytometry; format: functional

Compound	Activity [1]	Activity [2]	Activity [3]	Activity [4]	Activity [5]	IC50 [6]	Activity [7]	IC50 [8]	Activity [9]	IC50 [10]	IC50 [11]	Activity [12]	Activity [13]
O=C1C[C@H]2O[C@H](CO)[C@@H](O)[C@H]2O1	inactive	inactive	inactive	inactive	–	–	–	–	–	–	–	–	–
O=C1C[C@H]2O[C@H](CO)[C@@H](OCc3ccccc3)[C@H]2O1	inactive	inactive	inactive	inactive	–	–	–	–	–	–	–	–	–
O=C1C[C@H]2O[C@@H]([C@H](O)c3ccccc3)[C@@H](O)[C@H]2O1	inactive	inactive	inactive	inactive	–	–	–	–	–	–	–	–	–
O=C1C[C@H]2O[C@@H](CO)[C@@H](O)[C@H]2O1	inactive	inactive	inactive	inactive	–	–	–	–	–	–	–	–	–
O=C1C[C@H]2O[C@@H](CI)[C@@H](O)[C@H]2O1	–	–	–	–	inactive	529 µM	inactive	7.61 µM	inactive	141 µM	–	–	–
O=C1C[C@H]2O[C@@H](CO)[C@@H](OCc3ccccc3)[C@H]2O1	inactive	inactive	inactive	inactive	–	–	–	–	–	–	–	–	–
O=C(/C=C/c1ccccc1)O[C@H](c1ccccc1)[C@@H]1O[C@@H]2CC(=O)O[C@@H]2[C@@H]1O	–	–	–	–	inactive	1.34 µM	inactive	32.4 µM	inactive	612 µM	535 µM	–	–
COc1cccc2c1C(=O)c1c(O)c3c(c(O)c1C2=O)C[C@@](O)(C(=O)CO)C[C@@H]3O[C@H]1C[C@H](N)[C@H](O)[C@H](C)O1 [DOXORUBICIN]	–	–	–	–	–	0.106 µM	–	0.186 µM	–	0.0629 µM	0.482 µM	Active	Active
O=C1C[C@H]2O[C@@H]([C@@H](O)c3ccccc3)[C@@H](O)[C@H]2O1	inactive	inactive	inactive	inactive	–	–	–	–	–	–	–	–	–
